# From patent US8329421B2, “Methods of predicting response of a neoplasm to an EGFR inhibitor and detecting interactions between EGFR and an EGFR regulatory protein” (Ventana Medical Systems, Inc., priority 2007, dated 2012)
# Where two headings read alike, the source gives them in different places.
# What was measured:
# [1] = test system: NSCLC cancer patients; test: Response of NSCLC patients to TARCEVA therapy by 5B7/3C6 category (Example 7); type: in vivo, human; conditions: 150 mg/day orally
# Procedure: (§1) Tissue arrays containing biopsy samples from at least 100 NSCLC cancer patients are obtained. Each patient is treated with TARCEVA™ (EGFR inhibitor) therapy with a dosage of 150 mg/day given orally. Each patient has post-therapy follow-up for up to 5 years. Each biopsy sample is fixed in 10% NBF and paraffin embedded. Five (5) micron sections of each biopsy sample are cut and arrayed on positively charged glass slides. The slides are stained with an RD-binding molecule (e.g., clone 5B7) and an ED-binding molecule (e.g., clone 3C6) according to the protocols in Example 2. The resulting stained array slides are scored by light microscopy by a pathologist according to the following criteria:
# (§2) The score for each case is recorded in a database comparing the score for each binding molecule (e.g., 5B7 or 3C6). Approximately 65% of cases are expected to fall into category 1, 19% in category 2, <1% in category 3 and 15% in category 4. Patient outcome is directly related to the scoring category as indicated in Table 2 for an ID-based therapy.
# [2] = test system: non-small cell lung cancer; conditions: cited from earlier work
# [3] = test system: HCC cancer patients; test: Response of HCC patients to IRESSA therapy by 5B7/3C6 category (Example 11); type: in vivo, human; conditions: 200-500 mg/day orally
# Procedure: Tissue arrays containing biopsy samples from at least 100 HCC cancer patients are obtained (see, for example, samples collected in JS 0414, “A Pilot Study of Adjuvant Therapy of Gefitinib (Iressa, ZD1839) in Patients with Resectable Hepatocellular Carcinoma”, ClinicalTrials.gov Identifier No. NCT00228501). Each patient is treated with IRESSA™ (EGFR-inhibitor) therapy with a dosage of 200-500 mg/day given orally. Each patient has post-therapy follow-up for at least 12 months. Each biopsy sample is fixed in a standard fixative (e.g., 10% NBF) and paraffin embedded. Sections of each biopsy sample (e.g., 5 μm thick) are cut and arrayed on positively charged glass slides. The slides are stained with an RD-binding molecule (e.g., clone 5B7) and an ED-binding molecule (e.g., clone 3C6) according to the protocols in Example 2. The resulting stained array slides are scored by light microscopy by a pathologist according to the following criteria:
# as §2, with “60%” for “65%”, “13%” for “19%”, “5%” for “<1%”, “22%” for “15%”
# [4] = test system: NSCLC cancer patients; test: Response of NSCLC patients to IRESSA therapy by 5B7/3C6 category (Example 6); type: in vivo, human; conditions: 250 mg/day orally
# Procedure: as §1, with “IRESSA™ (EGFR-inhibitor)” for “TARCEVA™ (EGFR inhibitor)”, “250” for “150”
# as §2
# [5] = test system: breast cancer patients; test: Response of breast cancer patients to lapatinib therapy by 5B7/3C6 category (Example 10); type: in vivo, human; conditions: 1250-1500 mg/day orally
# Procedure: Tissue arrays containing biopsy samples from at least 100 breast cancer patients are obtained. Each patient is treated with lapatinib (TYKERB™) (HER1 (EGFR)/HER2-inhibitor) with a dosage of 1250-1500 mg/day given orally. Each patient has post-therapy follow-up for at least 20 months. Each biopsy sample is fixed in a standard fixative and paraffin embedded. Sections of each biopsy sample (e.g., 5 μm thick) are cut and arrayed on positively charged glass slides. The slides are stained with an RD-binding molecule (e.g., clone 5B7) and an ED-binding molecule (e.g., clone 3C6) according to the protocols in Example 2. The resulting stained array slides are scored by light microscopy by a pathologist according to the following criteria:
# as §2, with “20%” for “65%”, “16%” for “19%”, “3%” for “<1%”, “61%” for “15%”
# [6] = test system: clone 5B7; test: Peptide inhibition study (epitope mapping) on EGFR-positive lung squamous cell carcinoma; type: binding; conditions: 1000-fold molar excess of peptide, pre-incubated 1 hour at room temperature
# From the text: The epitope for the EGFR regulatory-domain-specific monoclonal antibody, clone 5B7, was mapped by peptide inhibition studies. Because the L2G Peptide was used as the immunogen and was used to screen for positive clones, it was known that the 5B7 epitope must be within that 19-amino acid sequence (see SEQ ID NO: 2). The L2G Peptide, a peptide containing the 13 C-terminal amino acid residues of the L2G Peptide, and a peptide containing the six N-terminal amino acid residues of the L2G Peptide plus three additional N-terminal residues (i.e., QIS) corresponding to the respective positions in the human EGFR sequence. The peptides were synthesized by Genemed Synthesis, Inc. (South San Francisco, Calif.).
# A known EGFR-positive lung squamous cell carcinoma was chosen for the peptide inhibition study. The 5B7 antibody was pre-incubated with each peptide for 1 hour at room temperature before application to the tissue. A 1000-fold molar excess of peptide compared to antibody was used.
# [7] = NSCLC patients in categories 1 and 3
# [8] = NSCLC patients in categories 2 and 4
compound,measurement,setting,value
C#Cc1cccc(Nc2ncnc3cc(OCCOC)c(OCCOC)cc23)c1 [erlotinib],patient response to therapy,[1]; [7],objective response
same,patient response to therapy,[1]; [8],not significantly respond
COc1cc2ncnc(Nc3ccc(F)c(Cl)c3)c2cc1OCCCN1CCOCC1 [gefitinib],NSCLC patients who responded to the drug,[2]; 250 gefitinib per day,about 10%
same,NSCLC patients who responded to the drug,[2]; 500 gefitinib per day,about 20%
same,patient response to therapy,[3]; HCC patients in categories 1 and 3,objective response
same,patient response to therapy,[3]; HCC patients in categories 2 and 4,not significantly respond
same,patient response to therapy,[4]; [7],objective response
same,patient response to therapy,[4]; [8],not significantly respond
CS(=O)(=O)CCNCc1ccc(-c2ccc3ncnc(Nc4ccc(OCc5cccc(F)c5)c(Cl)c4)c3c2)o1 [lapatinib],patient response to therapy,[5]; breast cancer patients in categories 1 and 3,objective response
same,patient response to therapy,[5]; breast cancer patients in categories 2 and 4,not significantly respond
LDNPDYQQDFFPKEAKPNG (listed as Homo sapiens) [Peptide 3],inhibition of 5B7 binding to tissue,[6],completely inhibited
Peptide 1: amino acids 1164-1175 of SEQ ID NO: 1 (QISLDNPDYQQD; listed as Homo sapiens),inhibition of 5B7 binding to tissue,[6],partial inhibition
Peptide 2: amino acids 7-19 of SEQ ID NO: 2; 13 C-terminal amino acid residues of the L2G Peptide (QQDFFPKEAKPNG; listed as Homo sapiens),inhibition of 5B7 binding to tissue,[6],complete inhibition
